Data from article PMC3639963, “A New Class of Small Molecule Inhibitor of BMP Signaling” (PLoS ONE, 2013).

How the values were obtained:
Assay in all cases: Nanosyn kinase profiling
Assay type in all cases: biochemical
Conditions in all cases: read-out: Percentage inhibition; for inhibition at 0.1 µM: 0.1 µM inhibitor; for inhibition at 1 µM: 1 µM inhibitor
[1] = target: T1, EPHB2 (Homo sapiens, UniProt P29323)
T1 construct: purchased Nanosyn (enzymatic panel); SGC in-house recombinant human kinases (DSF panel); Invitrogen (ALK1-6)
T1 sequence (P29323 19-1055): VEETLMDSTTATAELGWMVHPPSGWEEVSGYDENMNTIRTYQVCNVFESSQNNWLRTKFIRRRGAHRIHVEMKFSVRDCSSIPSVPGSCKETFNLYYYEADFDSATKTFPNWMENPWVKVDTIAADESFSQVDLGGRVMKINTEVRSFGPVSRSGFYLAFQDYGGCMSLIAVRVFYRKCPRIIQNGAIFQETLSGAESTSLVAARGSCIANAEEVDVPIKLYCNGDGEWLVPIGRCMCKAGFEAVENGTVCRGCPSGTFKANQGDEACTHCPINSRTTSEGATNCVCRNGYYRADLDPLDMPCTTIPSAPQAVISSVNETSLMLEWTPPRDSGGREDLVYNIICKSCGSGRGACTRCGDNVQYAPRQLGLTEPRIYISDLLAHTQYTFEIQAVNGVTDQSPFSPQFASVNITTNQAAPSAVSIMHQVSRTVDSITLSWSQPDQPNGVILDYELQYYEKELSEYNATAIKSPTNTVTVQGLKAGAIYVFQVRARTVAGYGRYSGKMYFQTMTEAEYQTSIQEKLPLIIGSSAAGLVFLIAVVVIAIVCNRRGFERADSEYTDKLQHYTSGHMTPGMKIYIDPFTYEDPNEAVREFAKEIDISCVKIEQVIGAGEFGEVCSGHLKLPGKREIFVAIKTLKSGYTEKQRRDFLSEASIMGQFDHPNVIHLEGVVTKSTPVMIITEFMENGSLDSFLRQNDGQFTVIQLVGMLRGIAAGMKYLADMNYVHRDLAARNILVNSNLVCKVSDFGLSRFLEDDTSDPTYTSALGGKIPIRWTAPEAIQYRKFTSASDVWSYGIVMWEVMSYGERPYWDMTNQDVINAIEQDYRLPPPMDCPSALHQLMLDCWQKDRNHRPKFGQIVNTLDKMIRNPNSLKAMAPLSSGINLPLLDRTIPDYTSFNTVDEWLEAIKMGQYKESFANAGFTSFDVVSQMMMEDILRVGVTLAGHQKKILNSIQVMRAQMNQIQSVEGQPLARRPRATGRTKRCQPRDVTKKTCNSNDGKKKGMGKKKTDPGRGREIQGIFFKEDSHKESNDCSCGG
Procedure: (§1) Percentage inhibition was determined for each kinase at both 0.1 µM and 1 µM inhibitor concentration (supplemental Table S2). […]. […]. When visualized on a kinase phylogenetic tree, these were primarily clustered within the receptor tyrosine kinases (TKs) as well as the calmodulin-dependent kinases (CAMKs) (Figure 2C).
(§2) Inhibitor selectivity profiling against 200 human kinases at 0.1 and 1 µM inhibitor concentration was performed by Nanosyn (www.nanosyn.com).

[2] = target: T2, RET (Homo sapiens, UniProt P07949)
T2 construct: purchased Nanosyn (enzymatic panel); SGC in-house recombinant human kinases (DSF panel); Invitrogen (ALK1-6)
Procedure: as §1, §2

[3] = target: T3, PI3-K-δ (Homo sapiens, UniProt O00329)
T3 construct: purchased Nanosyn (enzymatic panel); SGC in-house recombinant human kinases (DSF panel); Invitrogen (ALK1-6)
Procedure: as §1, §2

[4] = target: T4, PKCι (Homo sapiens, UniProt P41743)
T4 construct: purchased Nanosyn (enzymatic panel); SGC in-house recombinant human kinases (DSF panel); Invitrogen (ALK1-6)
T4 sequence (P41743 1-596): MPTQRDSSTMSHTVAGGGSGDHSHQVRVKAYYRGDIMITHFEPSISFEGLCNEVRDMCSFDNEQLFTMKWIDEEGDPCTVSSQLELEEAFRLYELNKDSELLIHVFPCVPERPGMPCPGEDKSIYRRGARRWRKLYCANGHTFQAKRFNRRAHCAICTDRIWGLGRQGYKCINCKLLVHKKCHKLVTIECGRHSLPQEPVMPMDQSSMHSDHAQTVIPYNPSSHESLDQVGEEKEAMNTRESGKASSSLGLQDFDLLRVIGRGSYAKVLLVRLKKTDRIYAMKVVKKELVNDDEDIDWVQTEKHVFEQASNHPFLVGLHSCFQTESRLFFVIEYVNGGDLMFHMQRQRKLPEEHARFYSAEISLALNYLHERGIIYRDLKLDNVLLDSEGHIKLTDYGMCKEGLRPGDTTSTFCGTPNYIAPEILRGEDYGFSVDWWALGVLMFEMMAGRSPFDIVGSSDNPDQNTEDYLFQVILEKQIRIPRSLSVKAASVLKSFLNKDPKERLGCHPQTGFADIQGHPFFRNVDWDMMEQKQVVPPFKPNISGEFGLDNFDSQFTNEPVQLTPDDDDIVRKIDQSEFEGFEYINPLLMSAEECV
Procedure: as §1, §2

[5] = target: T5, PRKD1 (Homo sapiens, UniProt Q15139)
T5 construct: purchased Nanosyn (enzymatic panel); SGC in-house recombinant human kinases (DSF panel); Invitrogen (ALK1-6)
T5 sequence (Q15139 1-912): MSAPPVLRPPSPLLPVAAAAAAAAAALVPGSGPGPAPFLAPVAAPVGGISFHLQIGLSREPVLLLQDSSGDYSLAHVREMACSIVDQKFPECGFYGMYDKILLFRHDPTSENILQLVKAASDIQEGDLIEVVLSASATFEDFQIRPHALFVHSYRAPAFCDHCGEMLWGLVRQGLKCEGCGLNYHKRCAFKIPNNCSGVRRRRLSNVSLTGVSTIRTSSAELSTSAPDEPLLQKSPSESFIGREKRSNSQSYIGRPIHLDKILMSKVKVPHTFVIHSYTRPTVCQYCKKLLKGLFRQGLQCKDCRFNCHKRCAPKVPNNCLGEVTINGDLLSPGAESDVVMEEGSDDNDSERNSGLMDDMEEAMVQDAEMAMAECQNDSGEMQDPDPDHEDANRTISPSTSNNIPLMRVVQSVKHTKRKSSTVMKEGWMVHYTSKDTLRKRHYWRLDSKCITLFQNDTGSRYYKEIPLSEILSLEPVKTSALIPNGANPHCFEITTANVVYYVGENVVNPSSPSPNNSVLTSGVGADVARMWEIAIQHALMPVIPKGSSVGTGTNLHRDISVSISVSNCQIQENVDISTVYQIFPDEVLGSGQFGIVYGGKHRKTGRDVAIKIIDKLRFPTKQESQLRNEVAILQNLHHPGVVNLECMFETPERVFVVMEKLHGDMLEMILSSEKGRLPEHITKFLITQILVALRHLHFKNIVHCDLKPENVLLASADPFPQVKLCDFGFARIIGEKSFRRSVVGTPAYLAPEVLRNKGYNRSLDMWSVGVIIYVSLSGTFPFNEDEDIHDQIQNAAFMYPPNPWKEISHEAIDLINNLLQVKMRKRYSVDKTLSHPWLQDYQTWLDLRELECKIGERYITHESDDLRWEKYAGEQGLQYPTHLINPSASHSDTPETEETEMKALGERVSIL
Procedure: as §1, §2

[6] = target: T6, DYRK1B (Homo sapiens, UniProt Q9Y463)
T6 construct: purchased Nanosyn (enzymatic panel); SGC in-house recombinant human kinases (DSF panel); Invitrogen (ALK1-6)
Procedure: as §1, §2

T6 sequence (Q9Y463 whole entry): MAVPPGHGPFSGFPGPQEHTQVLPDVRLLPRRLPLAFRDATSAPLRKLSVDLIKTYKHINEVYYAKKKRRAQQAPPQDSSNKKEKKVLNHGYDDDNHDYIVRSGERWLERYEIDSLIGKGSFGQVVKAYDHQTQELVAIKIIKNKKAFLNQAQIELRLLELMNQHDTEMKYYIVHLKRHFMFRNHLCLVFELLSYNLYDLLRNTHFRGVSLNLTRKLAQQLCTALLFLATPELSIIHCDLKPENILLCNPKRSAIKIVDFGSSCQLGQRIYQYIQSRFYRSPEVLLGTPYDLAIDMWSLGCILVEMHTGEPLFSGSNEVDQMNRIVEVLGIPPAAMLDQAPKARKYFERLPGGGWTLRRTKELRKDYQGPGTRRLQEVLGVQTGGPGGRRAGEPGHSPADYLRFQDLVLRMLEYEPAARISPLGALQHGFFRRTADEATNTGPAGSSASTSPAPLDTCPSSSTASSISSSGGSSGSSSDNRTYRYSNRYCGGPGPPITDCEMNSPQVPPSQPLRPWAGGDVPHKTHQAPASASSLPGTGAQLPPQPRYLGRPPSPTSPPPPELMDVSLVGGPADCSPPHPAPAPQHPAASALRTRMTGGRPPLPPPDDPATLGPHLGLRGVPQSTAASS
T2 sequence (P07949 29-1114): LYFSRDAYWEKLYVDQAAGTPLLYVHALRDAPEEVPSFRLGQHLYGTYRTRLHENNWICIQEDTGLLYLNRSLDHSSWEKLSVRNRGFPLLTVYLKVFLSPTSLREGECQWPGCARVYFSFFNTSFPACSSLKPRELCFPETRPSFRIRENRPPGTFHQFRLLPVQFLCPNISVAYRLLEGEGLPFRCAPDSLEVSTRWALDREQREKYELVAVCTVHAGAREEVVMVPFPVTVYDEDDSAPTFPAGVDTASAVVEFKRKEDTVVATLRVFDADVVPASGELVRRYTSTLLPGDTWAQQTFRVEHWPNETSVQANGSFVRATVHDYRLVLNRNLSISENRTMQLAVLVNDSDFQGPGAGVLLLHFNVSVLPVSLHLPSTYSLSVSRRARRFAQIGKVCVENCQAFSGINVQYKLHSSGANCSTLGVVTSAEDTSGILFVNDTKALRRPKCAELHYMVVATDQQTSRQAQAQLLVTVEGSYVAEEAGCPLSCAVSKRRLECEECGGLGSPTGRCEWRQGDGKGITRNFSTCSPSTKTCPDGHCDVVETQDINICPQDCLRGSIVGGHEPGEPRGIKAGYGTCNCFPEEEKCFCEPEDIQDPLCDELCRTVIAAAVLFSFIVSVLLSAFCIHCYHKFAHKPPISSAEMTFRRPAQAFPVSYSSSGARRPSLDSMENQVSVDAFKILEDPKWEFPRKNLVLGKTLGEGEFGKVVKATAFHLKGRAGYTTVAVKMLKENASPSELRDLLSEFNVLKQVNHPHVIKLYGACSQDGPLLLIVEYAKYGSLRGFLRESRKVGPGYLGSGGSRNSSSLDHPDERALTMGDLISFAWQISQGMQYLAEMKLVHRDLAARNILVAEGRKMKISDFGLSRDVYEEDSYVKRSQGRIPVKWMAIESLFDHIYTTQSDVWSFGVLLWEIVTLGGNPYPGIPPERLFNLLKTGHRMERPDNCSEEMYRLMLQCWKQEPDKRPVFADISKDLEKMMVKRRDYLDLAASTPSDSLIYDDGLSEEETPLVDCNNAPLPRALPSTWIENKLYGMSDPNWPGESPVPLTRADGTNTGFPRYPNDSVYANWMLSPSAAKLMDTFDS
T3 sequence (O00329 whole entry): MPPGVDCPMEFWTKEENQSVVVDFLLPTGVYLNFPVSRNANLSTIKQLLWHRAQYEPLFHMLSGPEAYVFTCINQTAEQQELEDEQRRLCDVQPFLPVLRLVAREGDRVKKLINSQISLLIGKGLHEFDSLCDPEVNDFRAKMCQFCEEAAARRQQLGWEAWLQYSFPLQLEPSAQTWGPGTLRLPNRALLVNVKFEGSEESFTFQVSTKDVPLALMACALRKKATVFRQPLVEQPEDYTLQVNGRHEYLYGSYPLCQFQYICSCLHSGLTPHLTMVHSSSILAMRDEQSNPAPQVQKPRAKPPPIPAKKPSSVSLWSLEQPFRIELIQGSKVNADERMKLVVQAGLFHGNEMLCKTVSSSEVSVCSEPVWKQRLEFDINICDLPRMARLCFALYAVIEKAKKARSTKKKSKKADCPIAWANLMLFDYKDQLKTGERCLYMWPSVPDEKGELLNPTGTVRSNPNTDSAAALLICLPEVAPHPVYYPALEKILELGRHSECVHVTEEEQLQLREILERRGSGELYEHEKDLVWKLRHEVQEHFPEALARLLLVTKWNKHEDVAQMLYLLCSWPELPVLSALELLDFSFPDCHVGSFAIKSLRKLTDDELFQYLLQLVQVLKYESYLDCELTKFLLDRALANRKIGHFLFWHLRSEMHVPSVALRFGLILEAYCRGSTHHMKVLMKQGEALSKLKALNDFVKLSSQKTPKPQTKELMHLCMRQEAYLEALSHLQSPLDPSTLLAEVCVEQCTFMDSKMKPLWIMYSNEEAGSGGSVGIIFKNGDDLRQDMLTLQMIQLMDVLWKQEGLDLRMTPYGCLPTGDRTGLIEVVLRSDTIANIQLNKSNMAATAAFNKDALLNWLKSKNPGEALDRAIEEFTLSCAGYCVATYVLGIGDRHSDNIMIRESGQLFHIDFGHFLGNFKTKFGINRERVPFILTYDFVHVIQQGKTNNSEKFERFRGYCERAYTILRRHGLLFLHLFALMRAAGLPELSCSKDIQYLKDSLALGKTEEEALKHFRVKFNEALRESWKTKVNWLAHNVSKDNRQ
T3 sequence (P27986 whole entry partner): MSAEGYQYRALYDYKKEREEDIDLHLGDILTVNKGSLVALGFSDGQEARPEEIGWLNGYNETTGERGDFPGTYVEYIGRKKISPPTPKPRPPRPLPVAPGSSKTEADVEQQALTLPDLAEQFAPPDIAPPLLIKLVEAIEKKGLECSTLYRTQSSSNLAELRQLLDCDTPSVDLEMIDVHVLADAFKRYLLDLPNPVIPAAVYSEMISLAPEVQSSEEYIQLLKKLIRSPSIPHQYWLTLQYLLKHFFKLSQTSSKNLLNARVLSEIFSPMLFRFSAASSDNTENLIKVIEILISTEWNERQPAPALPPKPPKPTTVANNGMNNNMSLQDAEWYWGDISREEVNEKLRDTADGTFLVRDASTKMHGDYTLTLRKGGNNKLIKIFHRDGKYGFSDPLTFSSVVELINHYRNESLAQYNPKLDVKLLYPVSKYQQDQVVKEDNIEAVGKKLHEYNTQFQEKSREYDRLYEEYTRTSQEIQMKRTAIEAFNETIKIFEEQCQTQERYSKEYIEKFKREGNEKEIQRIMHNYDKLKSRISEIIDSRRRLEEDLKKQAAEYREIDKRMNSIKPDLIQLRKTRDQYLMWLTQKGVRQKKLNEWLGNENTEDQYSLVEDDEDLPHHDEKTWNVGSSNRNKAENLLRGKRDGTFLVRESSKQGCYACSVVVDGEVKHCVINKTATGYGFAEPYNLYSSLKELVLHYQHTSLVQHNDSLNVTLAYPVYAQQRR

| SMILES | inhibition at 0.1 µM [1] | inhibition at 1 µM [1] | inhibition at 0.1 µM [2] | inhibition at 1 µM [2] | inhibition at 0.1 µM [3] | inhibition at 1 µM [3] | inhibition at 0.1 µM [4] | inhibition at 1 µM [4] | inhibition at 0.1 µM [5] | inhibition at 1 µM [5] | inhibition at 0.1 µM [6] | inhibition at 1 µM [6] |
| --- | --- | --- | --- | --- | --- | --- | --- | --- | --- | --- | --- | --- |
| COc1cc(-c2cc(-c3cccc(O)c3)cnc2N)cc(OC)c1OC [K02288, 3-[6-amino-5-(3,4,5-trimethoxy-phenyl)-pyridin-3-yl]-phenol] | 0% | 21% | 2.1% | 3.9% | 0.8% | 2.5% | 0.3% | 1.6% | 0% | 6.1% | 2.6% | 6% |
| c1ccc2c(-c3cnn4cc(-c5ccc(N6CCNCC6)cc5)cnc34)ccnc2c1 [LDN-193189] | 8.4% | 24% | 4% | 16% | -1% | 10% | 1.4% | 1.5% | 4.6% | 15% | 7.1% | 41% |
